The text below walks through data of US20260373274A1, “PEPTIDE-LINKED DRUG DELIVERY SYSTEM” (priority 2022, published 2026).

A short description of data set [1]: Hematology, complete blood count. Format: in vivo, female BALB/c mice. Particulars: i.v., 0.75 mg/kg weekly for 3 weeks. On the procedure:
Necropsy—Seven- to 9-week-old female BALB/c mice (n=4/group) were treated weekly with PBS, DM1, DM1-peptide (0.75 mg/kg of drug content), or cisplatin (10 mg/kg) via tail-vein injection (150 μL). At the end of a 3-week treatment, mice were euthanized. The organs/tissues were harvested, fixed in 10% neutral buffered formalin for 2 days. Bones were decalcified in a formic acid solution (Surgipath Decalcifier I; Leica Biosystems, Weltzar, Germany). The samples were then embedded in paraffin, sectioned (5 μm), and stained with H&E for examination by an ACVP board certified anatomic pathologist.
(§1) Hematology and biochemistry—Blood samples were collected via cardiac puncture. A complete blood count, including red blood cell, white blood cell, reticulocyte and platelet counts, with an automated differential leukocyte count, was performed using an IDEXX Procyte DX hematology analyzer (iDEXX, Westbrook. ME). Blood smears were prepared, stained with modified Wright's stain, examined in a blinded fashion by a board-certified veterinary clinical pathologist (T.S.), and imaged using a Nikon Eclipse TE2000-U fluorescent microscope equipped with a photometrics CoolSNAP HQ^2 camera (Nikon Corporation, Tokyo, Japan). The blood was also centrifuged (1,500×G) for 15 min to obtain the serum for biochemical analysis using a Beckman Coulter AU680 analyzer (Beckman Coulter, Brea, CA).

Data set [2] concerns Renca. The data set is described as follows: Cell viability and cytotoxicity assay. Format: cell-based, murine. Particulars: 72 h. The procedure:
(§2) Cell viability and cytotoxicity assay—Cancer cells (3×10^3/well) were seeded on a flat bottom 96-well plate overnight. […] CellTiter Glo reagent (Promega, Madison, WI) was added in each well (50 μL). The luminescence generated was recorded using a microplate reader (Tecan US Inc., Morrisville, NC). The dose response curves were plotted, and the half maximal inhibitory concentrations (IC50 values) were calculated using Graph Pad Prism 6.0 software.

Data set [3] concerns UMUC-3. The data set can be described thus: Cell viability and cytotoxicity assay. Format: cell-based, human. Particulars: 72 h. The procedure: as §2
Data set [4] in a line: Serum biochemistry. Format: in vivo, female BALB/c mice. Particulars: i.v. weekly for 3 weeks, CIS 10 mg/kg.
Excerpt: (§3) At the end of a 3-week treatment, mice were euthanized. The organs/tissues were harvested, fixed in 10% neutral buffered formalin for 2 days. Bones were decalcified in a formic acid solution (Surgipath Decalcifier I; Leica Biosystems, Weltzar, Germany). The samples were then embedded in paraffin, sectioned (5 μm), and stained with H&E for examination by an ACVP board certified anatomic pathologist.
as §1

The test system of data set [5] is orthotopic human UMUC-3 tumors. The data set can be described thus: Therapeutic efficacy for treating BC, orthotopic UMUC-3/GFP-Luc xenograft. An excerpt: These animals were immediately euthanized I week after the completion of the treatment schedule.
(§4) Slides were then counterstained with Hematoxylin.

Data set [6] has as its system major organs (liver, spleen, heart, lungs, and kidneys). The data set can be described thus: Necropsy, histopathology of major organs. Format: in vivo, female BALB/c mice.
Excerpt: as §3

The test system of data set [7] is panel of BC cell lines. The data set is described as follows: Cell viability and cytotoxicity assay, panel. Format: cell-based. On the procedure: as §2
Data set [8] deals with kidney injury molecule-1 (KIM-1) and neutrophil gelatinase-associated lipocalin (NGAL). The data set can be described thus: Nephrotoxicity studies, urinary renal injury biomarkers by ELISA. Format: in vivo, BALB/c mice. Particulars: single i.v. dose; 3 days. On the procedure:
The level of the acute renal injury biomarkers, neutrophil gelatinase-associated lipocalin (NGAL) and kidney injury molecule-1 (KIM-1) in the urine samples, were measured using ELISA assays according to the manufacturer's instructions (R&D Systems, Minneapolis, MN). […] All the animals (n=3/group) were euthanized at the end of the treatment and the kidneys were collected and fixed in 10% neutral buffered formalin. The tissues were then processed, embedded in paraffin, sectioned, and stained with H&E. Immunohistochemistry (IHC) for kidney injury (NGAL and KIM-I) was also performed.
In general terms: ELISA stands for enzyme-linked immunosorbent assay.

Data set [9] deals with Renca/GFP-Luc tumors. The data set is described as follows: Kidney cancer treatment, orthotopic Renca/GFP-Luc syngeneic model. Format: in vivo, female BALB/c mice; murine tumor cells. The procedure:
Evaluation of DM1-Bdd for Kidney cancer treatment—Renca/GFP-Luc cells ([…]) in PBS (3 μL) were orthotopically implanted into the kidney capsules of 7- to 9-week-old female BALB/c mice (Jackson Laboratory, Bar Harbor, ME) as previously described. The tumor progression was confirmed by bioluminescence imaging. […] The animals were monitored for tumor growth inhibition and survival as described above. Additional mice were used for histopathological analysis (n=4/group).
as §4

Where [10] appears, read: i.v., 0.75 mg/kg weekly for 3 weeks.

In the case of `COc1cc2cc(c1Cl)N(C)C(=O)C[C@H](OC(=O)[C@H](C)N(C)C(=O)CCS)[C@]1(C)O[C@H]1[C@H](C)[C@@H]1C[C@@](O)(NC(=O)O1)[C@H](OC)/C=C/C=C(\C)C2` [DM1, N2′-deacetyl-N2′-(3-mercapto-1-oxopropyl)-maytansine], in [1], the inflammatory response result was “inflammatory response characterized by increased proportions of neutrophils, monocytes, and platelets”; the reticulocytes result is on record as “induced reticulocytosis without apparent anemia”. Also, the “effectiveness against Renca cell line” value in [2] is recorded as “effective”. In data set [3], the “IC50 against UMUC-3” value is on record as “nanomolar (nM) range”; the “potency against UMUC-3 compared to other chemotherapeutics” value is “more potent than cisplatin (CIS), doxorubicin (DOX) and mitomycin (MIT), and as effective as gemcitabine (GEM)”; the “potency compared to DOX” value is “more potent than DOX”. Moreover, the “muscle injury (CK activity)” value in data set [4] (DM1 0.75 mg/kg) is listed as “induced muscle injury (CK activity)”. For the same compound, in data set [4] (DM1/DM1-Bdd 0.75 mg/kg), the “hepatotoxicity: release of ALP, ALT, and AST” value was “increases in ALT and AST activities”; the urea nitrogen/creatinine ratio entry is “increases in ALT and AST activities and BUN/creatinine ratios”. In addition, the “anti-tumor activity of i.v. DM1-Bdd versus i.v. DM1” value in data set [5] (bioluminescence imaging during 3 once-per-week treatments) is listed as “similar”. Moreover, in data set [5] (setting [10]), the “animal survival compared to i.t. MIT” value is reported as “prolonged animal survival”, the “survival after 100 days” value stood at 0% and the “tumor growth inhibition compared to i.t. MIT” value is “more effective in inhibiting tumor growth”. In addition, the overall toxicity result in data set [6] (i.v. weekly for 3 weeks) was “evidences of hepatic and renal injury”. The “extramedullary hematopoiesis (EMH), splenic and hepatic” value in data set [6] (setting [10]) was “Increased splenic and hepatic EMH”. For the same compound, the “fold more potent than commonly used ITC drugs, including MIT, DOX and CIS” value in data set [7] came to 100 fold. For the same compound, the “induction of KIM-1 and/or NGAL, 3 days” value in data set [8] was “continued induction of KIM-1 and/or NGAL”. For the same compound, in [9] (i.v. or i.t., 0.75 mg/kg weekly for 3 weeks), the “survival, i.v. or i.t.” value is given as “died”. For the same compound, the “tumor in kidneys by histological examination” value in [9] (one week after completing the treatment course) is “large and accompanied with an infiltration of mononuclear cells”.
